# From DBAASP
# Legend:
# Assay in all cases: ≥ marks a high value that may be exact or a test limit, other limits are often not marked, values filed in µg/mL are converted to µM
# [1] = tested on: Bacillus subtilis ATCC 6051
# [2] = tested on: Escherichia coli NEB5alpha
# [3] = tested on: Pseudomonas aeruginosa ATCC 27853
# [4] = tested on: Staphylococcus epidermidis ATCC 12228
# [5] = tested on: Salmonella enterica subsp. enterica serovar Pullorum C79-13
# [6] = tested on: Bacillus subtilis CMCC 63501
# [7] = tested on: Staphylococcus aureus ATCC 29213
# [8] = tested on: Enterococcus faecalis ATCC 29212
# [9] = tested on: Escherichia coli ATCC 25922
# [10] = tested on: Escherichia coli UB1005
# [11] = tested on: Salmonella enterica subsp. enterica serovar Typhimurium ATCC 14028
# [12] = tested on: Salmonella enterica subsp. enterica serovar Typhimurium C77-31
# [13] = tested on: Staphylococcus aureus ATCC 25923
# [14] = tested on: Micrococcus luteus ATCC 10240
# [15] = tested on: Escherichia coli BL21AI
# [16] = tested on: Pseudomonas aeruginosa PAO1
# [17] = tested on: Staphylococcus aureus ATCC 33591
# [18] = tested on: Staphylococcus aureus ATCC 700699
# [19] = tested on: Klebsiella pneumoniae ATCC 700603
MIC [2],MIC [3],MIC [4],MIC [5],MIC [6],MIC [7],MIC [8],MIC [9],MIC [17],MIC [18],MIC [19],Structure (SMILES),further results
≥ 500 µM,,,,,,,,,,,CC[C@H](C)[C@H](NC(=O)[C@H](C)NC(=O)CNC(=O)[C@H](CCCCN)NC(=O)[C@H](CCC(=O)O)NC(=O)[C@H](CCC(=O)O)NC(=O)[C@H](CC(=O)O)NC(=O)[C@H](CCC(=O)O)NC(=O)[C@H](CC(=O)O)NC(=O)[C@H](CCCN=C(N)N)NC(=O)CNC(=O)[C@H](CCC(N)=O)NC(=O)[C@H](CC(C)C)NC(=O)[C@@H](N)CCCCN)C(=O)N[C@H](C(=O)N[C@@H](CCCCN)C(=O)N[C@H](C(=O)N[C@@H](CCCCN)C(=O)NCC(=O)NCC(=O)N[C@@H](CC(C)C)C(=O)O)C(C)C)C(C)C [KLQGRDEDEEKGAIVKVKGGL],MIC [1]: ≥ 1000 µM
≥ 1360 µM,,,,,,,,,,,CC(C)C[C@H](NC(=O)[C@H](CCCN=C(N)N)NC(=O)[C@H](CC(C)C)NC(=O)[C@H](CC(C)C)NC(=O)[C@H](CCC(N)=O)NC(=O)[C@H](CCC(=O)O)NC(=O)[C@H](CC(C)C)NC(=O)[C@H](Cc1ccc(O)cc1)NC(=O)CNC(=O)[C@@H](N)CC(C)C)C(=O)O [LGYLEQLLRL],
,> 128 µM,> 128 µM,≥ 64 µM,≥ 128 µM,> 128 µM,64 µM,32 µM,,,,CC(C)[C@H](NC(=O)[C@H](CCCCN)NC(=O)[C@H](C)NC(=O)[C@H](C)NC(=O)[C@H](C)NC(=O)[C@H](CCCCN)NC(=O)[C@H](C)NC(=O)[C@H](C)NC(=O)[C@H](C)NC(=O)[C@H](CCCCN)NC(=O)[C@@H](NC(=O)[C@@H](N)Cc1c[nH]c2ccccc12)C(C)C)C(=O)N[C@@H](Cc1c[nH]c2ccccc12)C(N)=O [WVKAAAKAAAKVW],MIC [10]: ≥ 128 µM; MIC [11]: > 128 µM
,8 µM,2 µM,2 µM,1 µM,4 µM,2 µM,4 µM,,,,NC(=O)[C@H](Cc1c[nH]c2ccccc12)NC(=O)[C@H](CCCN=C(N)N)NC(=O)[C@H](Cc1c[nH]c2ccccc12)NC(=O)[C@H](CCCN=C(N)N)NC(=O)[C@H](CS)NC(=O)[C@H](Cc1ccccc1)NC(=O)[C@H](CCCN=C(N)N)NC(=O)[C@H](CCCN=C(N)N)NC(=O)[C@H](CCCN=C(N)N)NC(=O)[C@H](CS)NC(=O)[C@H](CCCN=C(N)N)NC(=O)[C@H](Cc1c[nH]c2ccccc12)NC(=O)[C@H](CCCN=C(N)N)NC(=O)[C@@H](N)Cc1c[nH]c2ccccc12 [WRWRCRRRFCRWRW],MIC [12]: 4 µM
,,,,,,,,,,,CC[C@H](C)[C@H](NC(=O)[C@H](CCCN=C(N)N)NC(=O)[C@H](CCCN=C(N)N)NC(=O)[C@@H]1CCCN1C(=O)[C@@H]1CCCN1C(=O)[C@H](CCCN=C(N)N)NC(=O)[C@@H]1CCCN1C(=O)[C@H](CCCN=C(N)N)NC(=O)[C@@H]1CCCN1C(=O)[C@H](CC(C)C)NC(=O)[C@H](Cc1ccc(O)cc1)NC(=O)[C@@H]1CCCN1C(=O)[C@@H]1CCCN1C(=O)[C@H](CCCCN)NC(=O)[C@H](CC(=O)O)NC(=O)[C@@H](N)C(C)C)C(=O)N[C@@H](Cc1ccc(O)cc1)C(=O)N[C@@H](CC(N)=O)C(=O)N[C@@H](Cc1cnc[nH]1)C(N)=O [VDKPPYLPRPRPPRRIYNH],MIC [13]: 38.2 µM; MIC [14]: 6.75 µM; MIC [15]: 6.75 µM; MIC [10]: 2.11 µM; MIC [16]: 54 µM
,> 100 µM,,,,> 100 µM,,> 100 µM,≥ 100 µM,≥ 100 µM,> 100 µM,CC[C@H](C)[C@H](NC(=O)[C@H](CC(=O)O)NC(=O)[C@H](CCCCN)NC(=O)[C@H](C)NC(=O)[C@H](C)NC(=O)CNC(=O)[C@H](CCCCN)NC(=O)[C@H](CC(C)C)NC(=O)[C@@H](NC(=O)[C@H](CC(=O)O)NC(=O)[C@@H](NC(=O)[C@@H](NC(=O)CN)C(C)C)C(C)C)[C@@H](C)CC)C(=O)N[C@@H](C)C(=O)NCC(=O)N[C@@H](Cc1cnc[nH]1)C(=O)N[C@@H](CC(C)C)C(=O)N[C@@H](C)C(=O)N[C@@H](CO)C(=O)N[C@@H](CCCCN)C(=O)N[C@H](C(=O)N[C@@H](CCSC)C(=O)N[C@@H](CC(N)=O)C(=O)N[C@@H](CCCCN)C(=O)N[C@@H](C)C(N)=O)C(C)C [GVVDILKGAAKDIAGHLASKVMNKA],
,64 µM,64 µM,16 µM,4 µM,64 µM,64 µM,8 µM,,,,CC[C@H](C)[C@H](N)C(=O)N[C@@H](CCCN=C(N)N)C(=O)N[C@@H](CS)C(=O)N[C@@H](CCCN=C(N)N)C(=O)N[C@@H](CCCN=C(N)N)C(=O)N[C@@H](CCCN=C(N)N)C(=O)N[C@@H](Cc1ccccc1)C(=O)N[C@@H](CS)C(=O)N[C@@H](CCCN=C(N)N)C(=O)N[C@H](C(N)=O)[C@@H](C)CC [IRCRRRFCRI],MIC [12]: ≥ 128 µM
,100 µM,,,,100 µM,,12.5 µM,25 µM,≥ 100 µM,50 µM,CC[C@H](C)[C@H](NC(=O)[C@H](CC(=O)O)NC(=O)[C@H](CCCCN)NC(=O)[C@H](C)NC(=O)[C@H](C)NC(=O)CNC(=O)[C@H](CCCCN)NC(=O)[C@H](CC(C)C)NC(=O)[C@@H](NC(=O)[C@H](CC(=O)O)NC(=O)[C@@H](NC(=O)[C@@H](NC(=O)CN)C(C)C)C(C)C)[C@@H](C)CC)C(=O)N[C@@H](C)C(=O)NCC(=O)N[C@@H](Cc1cnc[nH]1)C(=O)N[C@@H](CC(C)C)C(=O)N[C@@H](CC(C)C)C(=O)N[C@@H](CO)C(=O)N[C@@H](CCCCN)C(=O)N[C@H](C(=O)N[C@@H](CCSC)C(=O)N[C@@H](CC(N)=O)C(=O)N[C@@H](CCCCN)C(=O)N[C@@H](CC(C)C)C(N)=O)C(C)C [GVVDILKGAAKDIAGHLLSKVMNKL],
,> 100 µM,,,,> 100 µM,,50 µM,≥ 100 µM,≥ 100 µM,100 µM,CC[C@H](C)[C@H](NC(=O)[C@H](CC(=O)O)NC(=O)[C@H](CCCCN)NC(=O)[C@H](C)NC(=O)[C@H](C)NC(=O)CNC(=O)[C@H](CCCCN)NC(=O)[C@H](CC(C)C)NC(=O)[C@@H](NC(=O)[C@H](CC(=O)O)NC(=O)[C@@H](NC(=O)[C@@H](NC(=O)CN)C(C)C)C(C)C)[C@@H](C)CC)C(=O)N[C@@H](C)C(=O)NCC(=O)N[C@@H](Cc1cnc[nH]1)C(=O)N[C@@H](CC(C)C)C(=O)N[C@@H](C)C(=O)N[C@@H](CO)C(=O)N[C@@H](CCCCN)C(=O)N[C@H](C(=O)N[C@@H](CCSC)C(=O)N[C@@H](C)C(=O)N[C@@H](CCCCN)C(=O)N[C@@H](CC(C)C)C(N)=O)C(C)C [GVVDILKGAAKDIAGHLASKVMAKL],
≥ 1000 µM,,,,,,,,,,,CC[C@H](C)[C@H](NC(=O)[C@H](C)NC(=O)CNC(=O)[C@H](CCCCN)NC(=O)[C@H](CCC(=O)O)NC(=O)[C@H](CCC(=O)O)NC(=O)[C@H](CC(=O)O)NC(=O)[C@H](CCC(=O)O)NC(=O)[C@H](CC(N)=O)NC(=O)[C@H](CCCN=C(N)N)NC(=O)CNC(=O)[C@H](CCC(N)=O)NC(=O)[C@H](CC(C)C)NC(=O)[C@@H](N)CCCCN)C(=O)N[C@H](C(=O)N[C@@H](CCCCN)C(=O)N[C@H](C(=O)N[C@@H](CCCCN)C(=O)NCC(=O)NCC(=O)N[C@@H](CC(C)C)C(=O)O)C(C)C)C(C)C [KLQGRNEDEEKGAIVKVKGGL],MIC [1]: ≥ 1000 µM
